biological target: T1, human IL-17A (Homo sapiens, UniProt Q16552); assay: IL-17A AlphaLISA competition assay (block of IL-17A binding to its receptor IL-17RA); conditions: mean IC50 (n≥2), block of IL-17A binding to IL-17RA
T1 construct: purchased R&D Systems 7955-IL/CF
T1 sequence (Q16552 24-155): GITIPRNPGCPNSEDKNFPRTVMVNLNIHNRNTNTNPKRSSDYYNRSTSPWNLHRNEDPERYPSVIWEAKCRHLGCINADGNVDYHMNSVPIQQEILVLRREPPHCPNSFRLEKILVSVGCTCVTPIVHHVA
Summary of the method: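 Bead-based AlphaLISA competition in PBS with 0.05% Tween-20 and 0.1% BSA: compound first meets human IL-17A (7.5 nM stock) for 30 min, then IL-17RA/Fc (5 nM stock) for 90 min, all at room temperature, before acceptor/donor bead capture. IC50 fitted 4-parameter, DMSO and 4 μM reference inhibitor as controls; at least duplicate.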

Row | Compound | IC50
1 | COC[C@H](c1ccnc(NC(=O)C(NC(=O)c2nocc2OCC(F)F)C2CCC(F)CC2)c1)N1C[C@@H](C(F)(F)F)NC1=O (single isomer, unassigned) [Example 281] | 117 nM
2 | COC[C@H](c1ccnc(NC(=O)C(NC(=O)c2nonc2OCC(F)(F)F)C2CCC(F)CC2)c1)N1C[C@@H](C(F)(F)F)NC1=O (single isomer, unassigned) [Example 282] | 103 nM
3 | COC[C@H](c1ccnc(NC(=O)C(NC(=O)c2conc2C)C2CCC(F)CC2)c1)N1C[C@@H](C(F)(F)F)NC1=O (single isomer, unassigned) [Example 283] | 97 nM
4 | COC[C@H](c1ccnc(NC(=O)C(NC(=O)c2ccnn2C)C2CCC(F)CC2)c1)N1C[C@@H](C(F)(F)F)NC1=O (single isomer, unassigned) [Example 288] | 84 nM
5 | COC[C@H](c1ccnc(NC(=O)C(NC(=O)c2ccnn2C(C)C)C2CCC(F)CC2)c1)N1C[C@@H](C(F)(F)F)NC1=O (single isomer, unassigned) [Example 289] | 125 nM
6 | CCc1nonc1C(=O)N[C@H](C(=O)Nc1cc(CN2C[C@@H](C(F)(F)F)NC2=O)ccn1)[C@H]1CC[C@H](F)CC1 (single isomer, unassigned) [Example 290] | 160 nM
7 | COC[C@H](c1ccnc(NC(=O)C(NC(=O)c2nonc2C2CC2)C2CCC(C)(F)CC2)c1)N1C[C@@H](C(F)(F)F)NC1=O (single isomer, unassigned) [Example 296] | 4490 nM
8 | COC[C@H](c1ccnc(NC(=O)C(NC(=O)c2nonc2C2CC2)C2CCC(C)(F)CC2)c1)N1C[C@@H](C(F)(F)F)NC1=O (single isomer, unassigned) [Example 297] | 4800 nM
9 | COC[C@H](c1ccnc(NC(=O)C(NC(=O)c2nonc2C)C2CCC(C)(F)CC2)c1)N1C[C@@H](C(F)(F)F)NC1=O (single isomer, unassigned) [Example 298] | 85 nM
10 | CCn1nccc1C(=O)NC(C(=O)Nc1cc([C@@H](COC)N2C[C@@H](C(F)(F)F)NC2=O)ccn1)C1CCC(C)(F)CC1 (single isomer, unassigned) [Example 299] | 72 nM
11 | CCn1nccc1C(=O)N[C@H](C(=O)Nc1cc([C@@H](COC)N2C[C@@H](C(F)(F)F)NC2=O)ccn1)[C@H]1CCCC(F)(F)C1 (single isomer, unassigned) [Example 308] | 74 nM
12 | COC[C@H](c1ccnc(NC(=O)[C@@H](NC(=O)c2ccnn2C(C)C)[C@H]2CCCC(F)(F)C2)c1)N1C[C@@H](C(F)(F)F)NC1=O (single isomer, unassigned) [Example 309] | 98 nM
13 | CC(C)(C)OC(=O)N[C@H](C(=O)Nc1cc(C(NC(=O)CCC(F)(F)F)C2CC2)ccn1)[C@H]1CC[C@H](C)CC1 (single isomer, unassigned; diastereomer 1) [Example 71] | 197 nM
14 | CC(C)(C)OC(=O)N[C@H](C(=O)Nc1cc(C(NC(=O)CCC(F)(F)F)C2CC2)ccn1)C1CCC(F)(F)CC1 (single isomer, unassigned; diastereomer 1) [Example 72] | 547 nM
15 | COCC(NC(=O)CCC(F)(F)F)c1ccnc(NC(=O)[C@@H](NC(=O)OC(C)(C)C)C2CCC(F)(F)CC2)c1 (single isomer, unassigned; diastereomer 1) [Example 131] | 680 nM
16 | CC(C)(C)OC(=O)NC(C(=O)Nc1cc(CN2C[C@@H](C(F)(F)F)NC2=O)ccn1)C1CCC(F)(F)CC1 (stereo in doubt) [Example 6, Tert-butyl N-[(1S)-1-(4,4-difluorocyclohexyl)-2-oxo-2-[[4-[[(4S)-2-oxo-4-(trifluoro-methyl)imidazolidin-1-yl]methyl]-2-pyridyl]amino]ethyl]carbamate] | 566 nM
17 | O=C(N[C@H](C(=O)Nc1cc(CN2C[C@@H](C(F)(F)F)NC2=O)ccn1)C1CCC(F)(F)CC1)OCc1ccccc1 (stereo in doubt) [Example 10, Benzyl ((S)-1-(4,4-difluorocyclohexyl)-2-oxo-2-((4-(((S)-2-oxo-4-(trifluoromethyl)imidazolidin-1-yl)methyl)pyridin-2-yl)amino)ethyl)carbamate] | 273 nM
18 | Cn1nccc1C(=O)NC(C(=O)Nc1cc(C(C)(C)N2C[C@@H](C(F)(F)F)NC2=O)ccn1)C1CCC(F)(F)CC1 (stereo in doubt) [Example 172, N—((S)-1-(4,4-difluorocyclohexyl)-2-oxo-2-((4-(2-((S)-2-oxo-4-(trifluoro-methyl)imidazolidin-1-yl)propan-2-yl)pyridin-2-yl)amino)ethyl)-1-methyl-1H-pyrazole-5-carboxamide] | 1170 nM

Now those with a lower IC50, led by results:

Row | IC50 | Compound
19 | 62 nM | COC[C@H](c1ccnc(NC(=O)C(NC(=O)c2nocc2C)C2CCC(F)CC2)c1)N1C[C@@H](C(F)(F)F)NC1=O (single isomer, unassigned) [Example 284]
20 | 40 nM | CCc1nocc1C(=O)NC(C(=O)Nc1cc([C@@H](COC)N2C[C@@H](C(F)(F)F)NC2=O)ccn1)C1CCC(F)CC1 (single isomer, unassigned) [Example 286]
21 | 47 nM | COC[C@H](c1ccnc(NC(=O)C(NC(=O)c2nonc2C)C2CCC(F)CC2)c1)N1C[C@@H](C(F)(F)F)NC1=O (single isomer, unassigned) [Example 287]
22 | 25 nM | COC[C@H](c1ccnc(NC(=O)C(NC(=O)c2nonc2C2CC2)C2CCC(C)(F)CC2)c1)N1C[C@@H](C(F)(F)F)NC1=O (single isomer, unassigned) [Example 295]
23 | 26 nM | CCc1conc1C(=O)N[C@H](C(=O)Nc1cc([C@@H](COC)N2C[C@@H](C(F)(F)F)NC2=O)ccn1)C1CCCC(F)(F)C1 (single isomer, unassigned) [Example 304]
24 | 29 nM | CCc1conc1C(=O)N[C@H](C(=O)Nc1cc([C@@H](COC)N2C[C@@H](C(F)(F)F)NC2=O)ccn1)[C@H]1CCCC(F)(F)C1 (single isomer, unassigned) [Example 305]
25 | 47 nM | CCc1nocc1C(=O)N[C@H](C(=O)Nc1cc([C@@H](COC)N2C[C@@H](C(F)(F)F)NC2=O)ccn1)[C@H]1CCCC(F)(F)C1 (single isomer, unassigned) [Example 306]
26 | 51 nM | CCc1nocc1C(=O)N[C@H](C(=O)Nc1cc([C@@H](COC)N2C[C@@H](C(F)(F)F)NC2=O)ccn1)[C@H]1CCCC(F)(F)C1 (single isomer, unassigned) [Example 307]
27 | 18 nM | CCC[C@H](c1ccnc(NC(=O)C(NC(=O)c2nocc2CC)C2CCC(F)(F)CC2)c1)N1C[C@@H](C(F)(F)F)NC1=O (stereo in doubt) [Example 158, N—((S)-1-(4,4-difluorocyclohexyl)-2-oxo-2-((4-((R)-1-((S)-2-oxo-4-(trifluoromethyl)imidazolidin-1-yl)butyl)pyridin-2-yl)amino)ethyl)-4-ethylisoxazole-3-carboxamide]
28 | 30 nM | CCc1conc1C(=O)NC(C(=O)Nc1cc([C@@H](C(C)C)N2C[C@@H](C(F)(F)F)NC2=O)ccn1)C1CCC(F)(F)CC1 (stereo in doubt) [Example 159, N—((S)-1-(4,4-difluorocyclohexyl)-2-((4-((R)-2-methyl-1-((S)-2-oxo-4-(trifluoromethyl)imidazolidin-1-yl)propyl)pyridin-2-yl)amino)-2-oxoethyl)-4-ethylisoxazole-3-carboxamide]
